Test results from US11312727B1, “Macrocyclic flu endonuclease inhibitors” (Janssen BioPharma, Inc., priority 2018, dated 2022).

Tests used:
[1] = test system: Influenza strain A549 A/WSN/33 (H1N1); assay: microbe, parasite or virus in culture; format: cell-based; details: Influenza A virus, A549, 20 h, A549 cells, influenza A/WSN/33 (H1N1), 20 hours incubation; read-out: A549_A(H1N1) EC50
in vitro = details: human, CC50, uninfected A549 cells, CellTiter-Glo

SMILES: CC(C)[C@@H]1/C=C/COc2c(ccc(F)c2F)[C@@H](c2ccccc2)N2CN1C(=O)c1c(O)c(=O)ccn12 (single isomer, unassigned) [Compound 128AA, (9*R,18*R,*E)-3,4-difluoro-12-hydroxy-9-isopropyl-18-phenyl-6,9-dihydro-18H-10,17-methanobenzo[b]pyrido[1,2-f][1]oxa[5,6,9]triazacyclotridecine-11,13-dione]
- EC50 [1]: > 100 nM
- CC50 (in vitro): > 200 nM

SMILES: CC(C)[C@H]1/C=C/COc2c(ccc(F)c2F)[C@@H](c2ccccc2)N2CN1C(=O)c1c(O)c(=O)ccn12 (single isomer, unassigned) [Compound 128AB, (9*S,18*R,*E)-3,4-difluoro-12-hydroxy-9-isopropyl-18-phenyl-6,9-dihydro-18H-10,17-methanobenzo[b]pyrido[1,2-f][1]oxa[5,6,9]triazacyclotridecine-11,13-dione]
- EC50 [1]: 65 nM
- CC50 (in vitro): > 200 nM

SMILES: CC(C)[C@@H]1/C=C/COc2c(ccc(F)c2F)[C@H](c2ccccc2)N2CN1C(=O)c1c(O)c(=O)ccn12 (single isomer, unassigned) [Compound 128BA, (9*R,18*S,*E)-3,4-difluoro-12-hydroxy-9-isopropyl-18-phenyl-6,9-dihydro-18H-10,17-methanobenzo[b]pyrido[1,2-f][1]oxa[5,6,9]triazacyclotridecine-11,13-dione]
- EC50 [1]: > 100 nM
- CC50 (in vitro): > 200 nM

SMILES: CC(C)[C@H]1/C=C/COc2c(ccc(F)c2F)[C@H](c2ccccc2)N2CN1C(=O)c1c(O)c(=O)ccn12 (single isomer, unassigned) [Compound 128BB]
- EC50 [1]: 3.9 nM
- CC50 (in vitro): > 200 nM

SMILES: O=C1c2c(O)c(=O)ccn2N2CN1C/C=C\COc1c(cccc1C(F)(F)F)[C@H]2c1ccccc1 (single isomer, unassigned) [Compound 130A, (18*R,Z)-12-hydroxy-18-phenyl-4-(trifluoromethyl)-6,9-dihydro-18H-10,17-methanobenzo[b]pyrido[1,2-f][1]oxa[5,6,9]triazacyclotridecine-11,13-dione]
- EC50 [1]: 4.8 nM
- CC50 (in vitro): > 200 nM

SMILES: O=C1c2c(O)c(=O)ccn2N2CN1C/C=C\COc1c(cccc1C(F)(F)F)[C@@H]2c1ccccc1 (single isomer, unassigned) [Compound 130B, (18*S,Z)-12-hydroxy-18-phenyl-4-(trifluoromethyl)-6,9-dihydro-18H-10,17-methanobenzo[b]pyrido[1,2-f][1]oxa[5,6,9]triazacyclotridecine-11,13-dione]
- EC50 [1]: > 100 nM
- CC50 (in vitro): > 200 nM

SMILES: O=C1c2c(O)c(=O)ccn2N2CN1CC[C@@H]1C[C@H]1COc1cccc3c1[C@@H]2c1ccccc1SC3 (single isomer, unassigned) [Compound 131AA, (1*R,13*S,15*R)-7-hydroxy-17-oxa-24-thia-2,3,10-triazaheptacyclo[16.12.1.12,10.03,8.013,15.022,31.025,30]dotriaconta-4,18,20,22(31),25(30),26,28-heptaene-6,9-dione]
- EC50 [1]: 4.7 nM
- CC50 (in vitro): > 200 nM

SMILES: O=C1c2c(O)c(=O)ccn2N2CN1CCC1C[C@@H]1COc1cccc3c1[C@@H]2c1ccccc1SC3 (single isomer, unassigned) [Compound 131AB, (1*R,13*R,15*S)-7-hydroxy-17-oxa-24-thia-2,3,10-triazaheptacyclo[16.12.1.12,10.03,8.013,15.022,31.025,30]dotriaconta-4,18,20,22(31),25(30),26,28-heptaene-6,9-dione]
- EC50 [1]: 17 nM
- CC50 (in vitro): > 200 nM

SMILES: O=C1c2c(O)c(=O)ccn2N2CN1CC[C@@H]1C[C@H]1COc1cccc3c1[C@H]2c1ccccc1SC3 (single isomer, unassigned) [Compound 131BA, (1*S,13*S,15*R)-7-hydroxy-17-oxa-24-thia-2,3,10-triazaheptacyclo[16.12.1.12,10.03,8.013,15.022,31.025,30]dotriaconta-4,18,20,22(31),25(30),26,28-heptaene-6,9-dione]
- EC50 [1]: > 100 nM
- CC50 (in vitro): > 200 nM

SMILES: O=C1c2c(O)c(=O)ccn2N2CN1CC[C@H]1C[C@@H]1COc1cccc3c1[C@H]2c1ccccc1SC3 (single isomer, unassigned) [Compound 131BB, (1*S,13*R,15*S)-7-hydroxy-17-oxa-24-thia-2,3,10-triazaheptacyclo[16.12.1.12,10.03,8.013,15.022,31.025,30]dotriaconta-4,18,20,22(31),25(30),26,28-heptaene-6,9-dione]
- EC50 [1]: > 100 nM
- CC50 (in vitro): > 200 nM

SMILES: CC(C)[C@@H]1/C=C/COc2ccccc2[C@@H](c2ccccc2)N2CN1C(=O)c1c(O)c(=O)ccn12 (single isomer, unassigned) [Compound 132A, (9*R,18*R,*E)-12-hydroxy-9-isopropyl-18-phenyl-9,10-dihydro-6H,18H-10,17-methanobenzo[b]pyrido[1,2-f][1]oxa[5,6]diazacyclotridecine-11,13-dione]
- EC50 [1]: > 100 nM
- CC50 (in vitro): > 200 nM

SMILES: CC(C)[C@H]1/C=C/COc2ccccc2[C@H](c2ccccc2)N2CN1C(=O)c1c(O)c(=O)ccn12 (single isomer, unassigned) [Compound 132B, (9*S,18*S,*E)-12-hydroxy-9-isopropyl-18-phenyl-6,9-dihydro-18H-10,17-methanobenzo[b]pyrido[1,2-f][1]oxa[5,6,9]triazacyclotridecine-11,13-dione]
- EC50 [1]: 9.3 nM
- CC50 (in vitro): > 200 nM

SMILES: Cc1c(F)ccc2c1OC/C=C\CN1CN([C@@H]2c2ccccc2)n2ccc(=O)c(O)c2C1=O (single isomer, unassigned) [Compound 133A, (18*R,Z)-3-fluoro-12-hydroxy-4-methyl-18-phenyl-6,9-dihydro-18H-10,17-methanobenzo[b]pyrido[1,2-f][1]oxa[5,6,9]triazacyclotridecine-11,13-dione]
- EC50 [1]: 4.1 nM
- CC50 (in vitro): > 200 nM

SMILES: Cc1c(F)ccc2c1OC/C=C\CN1CN([C@H]2c2ccccc2)n2ccc(=O)c(O)c2C1=O (single isomer, unassigned) [Compound 133B, (18*S,Z)-3-fluoro-12-hydroxy-4-methyl-18-phenyl-6,9-dihydro-18H-10,17-methanobenzo[b]pyrido[1,2-f][1]oxa[5,6,9]triazacyclotridecine-11,13-dione]
- EC50 [1]: > 100 nM
- CC50 (in vitro): > 200 nM

SMILES: O=C1c2c(O)c(=O)ccn2N2CN1C/C=C\COc1c(OC(F)(F)F)cccc1[C@H]2c1ccccc1 (single isomer, unassigned) [Compound 134A, (18*R,Z)-12-hydroxy-18-phenyl-4-(trifluoromethoxy)-6,9-dihydro-18H-10,17-methanobenzo[b]pyrido[1,2-f][1]oxa[5,6,9]triazacyclotridecine-11,13-dione]
- EC50 [1]: 69.3 nM
- CC50 (in vitro): > 200 nM

SMILES: O=C1c2c(O)c(=O)ccn2N2CN1C/C=C\COc1c(OC(F)(F)F)cccc1[C@@H]2c1ccccc1 (single isomer, unassigned) [Compound 134B, (18*S,Z)-12-hydroxy-18-phenyl-4-(trifluoromethoxy)-6,9-dihydro-18H-10,17-methanobenzo[b]pyrido[1,2-f][1]oxa[5,6,9]triazacyclotridecine-11,13-dione]
- EC50 [1]: > 100 nM
- CC50 (in vitro): > 200 nM

SMILES: Cc1ccc2c(c1F)OC/C=C\CN1CN([C@@H]2c2ccccc2)n2ccc(=O)c(O)c2C1=O (single isomer, unassigned) [Compound 135A, (18*R,Z)-4-fluoro-12-hydroxy-3-methyl-18-phenyl-6,9-dihydro-18H-10,17-methanobenzo[b]pyrido[1,2-f][1]oxa[5,6,9]triazacyclotridecine-11,13-dione]
- EC50 [1]: 7.3 nM
- CC50 (in vitro): > 200 nM

SMILES: Cc1ccc2c(c1F)OC/C=C\CN1CN([C@H]2c2ccccc2)n2ccc(=O)c(O)c2C1=O (single isomer, unassigned) [Compound 135B, (18*S,Z)-4-fluoro-12-hydroxy-3-methyl-18-phenyl-6,9-dihydro-18H-10,17-methanobenzo[b]pyrido[1,2-f][1]oxa[5,6,9]triazacyclotridecine-11,13-dione]
- EC50 [1]: > 100 nM
- CC50 (in vitro): > 200 nM

SMILES: O=C1c2c(O)c(=O)ccn2N2CN1C/C=C\COc1c(ccc(F)c1F)[C@H]2c1ccccc1C1CC1 (single isomer, unassigned) [Compound 136A, (18*R,*Z)-18-(2-cyclopropylphenyl)-3,4-difluoro-12-hydroxy-6,9-dihydro-18H-10,17-methanobenzo[b]pyrido[1,2-f][1]oxa[5,6,9]triazacyclotridecine-11,13-dione]
- EC50 [1]: 6.3 nM
- CC50 (in vitro): > 200 nM

SMILES: O=C1c2c(O)c(=O)ccn2N2CN1C/C=C\COc1c(ccc(F)c1F)[C@@H]2c1ccccc1C1CC1 (single isomer, unassigned) [Compound 136B, (18*S,*Z)-18-(2-cyclopropylphenyl)-3,4-difluoro-12-hydroxy-6,9-dihydro-18H-10,17-methanobenzo[b]pyrido[1,2-f][1]oxa[5,6,9]triazacyclotridecine-11,13-dione]
- EC50 [1]: > 100 nM
- CC50 (in vitro): > 200 nM

SMILES: O=C1c2c(O)c(=O)ccn2N2CN1CC/C=C/COc1cccc3c1[C@@H]2c1cccc(F)c1SC3 (single isomer, unassigned) [Compound 137A, (1*R,13*E)-25-fluoro-7-hydroxy-16-oxa-23-thia-2,3,10-triazahexacyclo[15.12.1.12,10.03,8.021,30.024,29]hentriaconta-4,7,13,17,19,21(30),24(29),25,27-nonaene-6,9-dione]
- EC50 [1]: > 100 nM
- CC50 (in vitro): > 200 nM

SMILES: O=C1c2c(O)c(=O)ccn2N2CN1CC/C=C/COc1cccc3c1[C@H]2c1cccc(F)c1SC3 (single isomer, unassigned) [Compound 137B, (1*S,13*E)-25-fluoro-7-hydroxy-16-oxa-23-thia-2,3,10-triazahexacyclo[15.12.1.12,10.03,8.021,30.024,29]hentriaconta-4,7,13,17,19,21(30),24(29),25,27-nonaene-6,9-dione]
- EC50 [1]: 5.3 nM
- CC50 (in vitro): > 200 nM
